Assay [1] relates to TNF-a production by peripheral blood mononuclear cells. Put plainly: Inhibition of Tumor Necrosis Factor alpha in LPS-stimulated PBMC adherent cells (ELISA). Format: cell-based. The settings on record: human PBMC adherent cells, 1 μg/ml LPS, 18 hours. As to the method:
Peripheral blood mononuclear cells (PBMC) are isolated from venous blood collected from healthy volunteers in sodium citrate (5 ml of 3.6% sodium citrate for 45 ml of blood) by density gradient centrifugation of 5 minutes at 1500 rpm. The PBMC are resuspended in about 10 ml of RPMI-1640 with antibiotics. Approximately 2×10^6 cells of PBMC are added to tissue culture plates, incubated for 45-60 minutes at 37 C with 5% CO2, aspirated, and washed twice by adding about 0.5 ml fresh RPMI-1640 with 10% non-mitogenic FBS (RPMI complete) and shaking for 15 to 30 seconds. 1.0 ml RPMI-1640 is added per well to the remaining adherent cells, which are pretreated with test compound solution about 15 minutes prior to endotoxin stimulation (1 μg/ml lipopolysaccharide from E. coli or solvent concentrations equal to those of test compounds.
Cultures are incubated for 18 hours t 37 C in 5% CO2. Supernatants are tested from TNF-a using a commercial ELISA kit (Cistron, Pine Brook, N.J.). The IC50 is determined using SOFTmax software program.
In general terms: ELISA stands for enzyme-linked immunosorbent assay.

Assay [2] deals with endotoxin-induced septic shock in CF1 mice. The experiment in a line: Mouse endotoxin lethality model (D-galactosamine/LPS). Format: in vivo. The following applies: 100 mg/kg i.p., pretreated t=-1 hr, 18 mg D-glactoseamine and 50 ng LPS, observed 8-72 hour. As to the method: Using the method of Silverstein, (J. Exp. Med. 173, 357 (1991)) a mouse endotoxin lethality model may be used to determine if a compound of formula (1) has the ability to inhibit endotoxin-induced septic shock which is dependent on the production of Tumor Necrosis Factor-α (TNF-α). CF1 mice pretreated at time (t)=−1 hr with drug are challenged with 18 mg of D-glactoseamine and 50 ng of LPS, then observed for death over an 8-72 hour period.

The test system of assay [3] is Rat macrophage antigen presentation to mBSA-reactive T-cell hybridoma / Interleukin-2 production. The experiment in a line: Regulation of macrophage antigen presentation to rat T-cell hybridoma (Interleukin-2 production). Format: cell-based. As to the method: Using the method of Ku (Cellular Immunology 130, (1990)), and a Lewis (LEW/N) rat T-cell hybridoma reactive with the protein methylated bovine serum albumin (mBSA), the ability of a compound of formula (1) to regulate MΦ antigen presentation in vitro may be measured. Peritoneal macrophages obtained from LEW/N rats are plated into tissue culture and treated with 100 μg of mBSA and drug. A control is prepared similarly. After a period of 18 hours the cells are washed and incubated with the T-cell hybridoma for an additional 12 hours. Supernatants from these cultures are obtained and measured for content of Interleukin-2, a T-cell derived lymphokine which is produced by activated T-cells. […] Rat macrophage antigen presentation and the subsequent production of Interleukin-2 are inhibited when drug is administered over a concentration range from 0.1 to 100 μM as illustrated in the following table.

Assay [4] relates to Major Histocompatibility complex (MHC) class II antigen levels on macrophages. The experiment in a line: Regulation of MHC class II expression on macrophages from M. tuberculosis-treated rats (flow cytometry, OX-6/OX-42). Format: cell-based, rat. The following applies: 10 μM, 18 hours; positive control 59%. As to the method:
Using the method of Edwards (J. of Cell Biochemistry 5E, 155(1991)), the ability of a compound of formula (1) to reduce Major Histocompatibility complex (MHC) class II antigen levels on macrophages (MΦ) obtained from M. tuberculosis-treated rats may be measured. Cells obtained from treated rats are plated into tissue culture for a period of 4 hours to purify adherent cells, then treated with increasing levels of drug for a period of 18 hours. After this incubation period, cells are scraped from the dishes and stained using flow cytometry analysis with various monoclonal antibodies such as OX-6 a monoclonal antibody specific for MHC class II antigens and OX-42 a monoclonal antibody specific for rat macrophages.
On the technique in general: In flow cytometry, cells or beads pass a laser one at a time.

Structures can show the parent of a compound that is named as a salt.

As for `Nc1ncnc2c1ncn2[C@@H]1CCC[C@H]1O` (racemic) [(±)-Trans-1-(9-adenyl)-2-hydroxycyclopentane, reference compound], 22.2 µM corresponded to half-maximal inhibition in assay [1] (IC50).

Regarding `Cl.Nc1ncnc2c1ncn2[C@@H]1CC[C@@H](O)C1` (relative stereo) [Example 1, (1R,3R)-trans-1(9-Adenyl)cyclopentan-3-ol Hydrochloride], in assay [2], the “protection against endotoxin lethality” value is listed as “protects against endotoxin lethality”. For the same molecule, in assay [3] (0.1 to 100 μM), the T-cell activation result is “inhibits T-cell activation”. The “% Inhibition (antigen presentation / Interleukin-2 production)” value is recorded as 7.6% in assay [3] (in vitro concentration 0.1 μM), 30.9% in assay [3] (in vitro concentration 1.0 μM), 48.7% in assay [3] (in vitro concentration 10.0 μM) and 55.3% in assay [3] (in vitro concentration 100.0 μM). Besides, the “OX-6/OX-42 double positive macrophages” value in assay [4] amounted to 39%. In assay [1], inhibition was half-maximal at 9 µM (IC50).

Regarding `Nc1nc(Cl)nc2c1ncn2[C@@H]1CC[C@@H](O)C1` (relative stereo) [Example 6, (1R,3R)-trans-1-[9-(6-Amino-2-chloropurinyl)]cyclopentan-3-ol Hydrochloride], the IC50 (as a rule, the point on the concentration scale where inhibition reaches its midpoint) in assay [1] was 4.1 µM.

The values are drawn from patent US6436947B1, “Trans cyclopentanyl purine analogs useful as immunosuppressants” (Aventis Pharmaceuticals Inc., priority 1991, dated 2002).
